{"source": "patent US11389415B2", "about": "“Methods of regulating cannabinoid receptor activity-related disorders and diseases” (The United States of America as represented by the …, priority 2012, dated 2022)", "assay_type_in_all_cases": "cell-based, human", "key": {"1321N1 cells": {"tested_on": "1321N1 cells", "experiment": "Mitogenesis / [3H]-thymidine incorporation in 1321N1 cells", "details": "compound alone", "description": "(§1) Maintenance and Treatment of Cell Lines. Human HepG2 hepatocarcinoma cells and human U87MG glioma cells (ATCC, Manassas, Va.) were maintained in EMEM medium supplemented with 1% L-glutamine, 1% sodium pyruvate, 1% penicillin/streptomycin, and 10% FBS (Hyclone, Logan, Utah). The human 1321N1 astrocytoma cells (European Collection of Cell Cultures, Sigma-Aldrich) were cultured in Dulbecco's modified Eagle's medium supplemented with 10% FBS and penicillin/streptomycin. All cell lines were cultured at 37° C. in 5% CO2, and the medium was replaced every 2-3 days.\n(§2) [^3H]-Thymidine Incorporation Assay. Cells were seeded in 12-well plates at approximately 50,000 cells/well and incubated at 37° C. After 24 hours, the wells were rinsed with PBS and replaced with serum-free medium containing the appropriate concentration of the test compounds. After another 24-hour incubation at 37° C., 1 μCi of [^3H]-thymidine was added to each well and incubated at 37° C. for 16 hours. [^3H]-Thymidine incorporation into DNA was monitored after the cells were washed twice with PBS and then lysed in 600 μL of 0.1N NaOH for 30 minutes with shaking. The lysate was then mixed with 3 mL of liquid scintillation cocktail (Beckman Coulter, Inc., Brea, Calif.), and radioactivity was measured by liquid scintillation counting using Beckman Coulter LS6000IC Scintillation Counter. Data are shown as CPM incorporated compared to the control cells."}, "HepG2 cells [1]": {"tested_on": "HepG2 cells", "experiment": "[3H]-Thymidine incorporation assay in HepG2 cells", "description": "as §1\nas §2, with “Cells” for “[^3H]-Thymidine Incorporation Assay. Cells”"}, "HepG2 cells [2]": {"tested_on": "HepG2 cells", "experiment": "cAMP accumulation in HepG2 cells", "details": "β-agonists at 10 μM", "description": "cAMP Accumulation. HepG2 cells were seeded in 96-well plates and grown to confluency. […] The levels of cAMP accumulated in cells were determined and normalized to the amount of protein per well."}, "HepG2 cells [3]": {"tested_on": "HepG2 cells", "experiment": "Cell cycle analysis by flow cytometry in HepG2 cells", "details": "HepG2, 1 μM, up to 24 hours", "description": "Cell Cycle Analysis. Cell cycle distributions were performed by flow cytometry on propidium iodide-stained nuclei prepared by the NIM technique. DNA histograms of at least 10,000 cells acquired on a Becton-Dickinson FACScanto II (BD Biosciences, San Jose, Calif.) were deconvoluted using the Multicycle program (Phoenix Flow Systems) for estimates of the percentage of cells in the G0/1, S, and G2+M phases of the cell cycle. Debris and doublets were removed from the analysis by software algorithms."}, "HepG2 cells [4]": {"tested_on": "HepG2 cells", "experiment": "Apoptosis assay (annexin V/PI flow cytometry) in HepG2 cells", "details": "HepG2, 1 μM, 24 hours", "description": "Apoptosis Assay. The degree of apoptosis induced by drug treatment was assayed by flow cytometry using the Alexa Fluor® 488 annexin V/Dead Cell Apoptosis Kit (Invitrogen) following the standard manufacturer's protocol. […] Cells were subsequently harvested after a 24-hour incubation, washed in cold PBS, and resuspended in 100 μL of 1× annexin-binding buffer to maintain a density˜1×10^6 cells/mL, after which 5 μL Alexa Fluor® 488 annexin V and 1 μL 100 μg/mL propidium iodide were added to the cell suspensions. Cells were then incubated at room temperature for 15 minutes and 400 μL 1× annexin-binding buffer was added followed by gentle mixing. Stained cells were analyzed on a BDFACSCanto II flow cytometer."}, "U87MG cells": {"tested_on": "U87MG cells", "experiment": "[3H]-Thymidine incorporation in U87MG cells", "details": "compound alone", "description": "as §1\nas §2, with “Cells” for “[^3H]-Thymidine Incorporation Assay. Cells”"}, "Akt and ERK1/2": {"tested_on": "Akt and ERK1/2", "experiment": "phosphorylation of Akt and ERK1/2 in HepG2 cells (Western blot)", "details": "1 μM, 5, 10 and 30 minutes", "experimental": "Western Blotting. Cells were lysed with RIPA buffer containing EGTA and EDTA (Boston BioProducts, Ashland, Mass.). The lysis buffer was mixed with a protease inhibitor cocktail (Sigma-Aldrich). Protein concentrations were measured using the bicinchoninic acid reagent (Thermo-Pierce Biotechnology, Inc., Rockford, Ill.). […] Western blots were performed according to standard methods. The visualization of immunoreactive bands was performed using the ECL Plus Western Blotting Detection System (GE Healthcare, NJ) and their quantification was done by volume densitometry using Image J software and normalization to β-actin. […] The antibodies were used at a dilution recommended by the manufacturer."}}, "note": "“Also recorded” adds a separate entry of the source.", "data": [{"smiles": "C[C@H](Cc1ccc(O)cc1)NC[C@H](O)c1cc(O)cc(O)c1", "note": "[(R,R′)-Fen, (R,R′)-Fenoterol]", "values": [{"measurement": "effect on proliferation / [3H]-thymidine incorporation", "setting": "1321N1 cells", "value": "reduced proliferation in 1321N1 cells"}, {"measurement": "% Change in HepG2 cells ([3H]-thymidine incorporation)", "setting": "HepG2 cells [1]; 1 μM, 24 h", "value": 51.3, "unit": "%"}, {"measurement": "EC50", "setting": "HepG2 cells [1]; Homo sapiens, HepG2, read-out: IC50/EC50 (μM): EC50 (ED50) for increase in [3H]-thymidine incorporation", "value": "1.17 ± 0.37", "unit": "µM"}, {"measurement": "cAMP production", "setting": "HepG2 cells [2]", "value": "Neither (R)-isoproterenol nor (R,R′)-Fen, at 10 μM, elicited an increase in cAMP production"}, {"measurement": "cell cycle / sub-G1 events", "setting": "HepG2 cells [3]", "value": "no significant alterations of the cell cycle; also recorded: No significant increase in sub-G1 events"}, {"measurement": "apoptosis compared to control", "setting": "HepG2 cells [4]", "value": "markedly reduced apoptosis"}, {"measurement": "effect on cellular proliferation", "setting": "U87MG cells", "value": "had no effect"}, {"measurement": "Akt and ERK activation", "setting": "Akt and ERK1/2", "value": "induced a time-dependent increase in Akt and ERK activation"}]}]}
